Reference: paper PMC11487561 (ACS Chemical Neuroscience, 2024)
pEC50: −log10 of the molar value.

test system: not listed separately; assay: Binding in plasma from rat (equilibrium dialysis); type: in vitro ADME; settings: fraction unbound, equilibrium dialysis, read-out: rat fu,plasma
Procedure: (§1) Binding in plasma from rat and human.
(§2) Determination of compounds’ fraction unbound (f u) in plasma from rat and human was conducted in vitro via equilibrium dialysis using HTDialysis membrane plates. Dialysis membranes (four paired strips per HTD assay) were hydrated as described by the manufacturer and inserted into the HTD plate, which was assembled and prepared for sample addition by the dispensing of blank buffer (DPBS, 100 µL/well) into the ‘top half’ of each membrane-split well. Each compound was diluted into plasma from each species (5 µM final concentration), which was aliquoted in triplicate to the ‘bottom half’ of the prepared HTD plate wells. The HTD plate was sealed and incubated for 6 hours at 37 °C. Following incubation, each well (both top and bottom halves) were transferred (20 µL) to the corresponding wells of a 96-shallow-well (V-bottom) plate. The daughter plates were then matrix-matched (buffer side wells received equal volume of plasma, and plasma side wells received equal volume of buffer), and extraction solution (120 µL; acetonitrile containing 50 nM carbamazepine as IS) was added to all wells of both daughter plates to precipitate protein and extract test article. The plates were then sealed and centrifuged (3500 rcf) for 10 minutes at ambient temperature. Supernatant (60 µL) from each well of the daughter plates was then transferred to the corresponding wells of new daughter plates (96-shallow-well, V bottom) containing water (Milli-Q, 60 µL/well), and the plates were sealed in preparation for LC-MS/MS analysis (see below). fu was calculated as (analyte to IS MS peak area ratio from Trans-buffer side) / (analyte to IS MS peak area ratio from Cis-plasma side). Mean values for each species were calculated from 3 replicates.

Structure (SMILES)	fraction unbound at 6 h, 5 µM
COc1ccc(CNc2nccc3c2sc2nc(C)nc(C)c23)cc1F [22j]	0.014
Cc1nc(C)c2c(n1)sc1c(N3CC4CC4C3)ncnc12 (stereo not drawn) [14i]	0.048
Cc1nc(C)c2c(n1)sc1c(N3CCCC3)nccc12 [22k]	0.038

same assay, conditions: in %, read-out: rat fu,plasma

Structure (SMILES)	fraction unbound at 6 h, 5 µM
Cc1nc(C)c2c(n1)sc1c(N3CC4CC4C3)ncnc12 (stereo not drawn) [14i]	> 0.05

test system: not listed separately; assay: Intrinsic clearance in rat liver microsomes; type: in vitro ADME; settings: pH 7.4; rat liver microsomes
Procedure: (§3) Intrinsic Clearance in Rat and Human Liver Microsomes
(§4) The in vitro intrinsic clearance (CL int) was investigated in commercially obtained hepatic microsomes from rat and human donors using the substrate depletion (i.e., loss-of-parent vs. time, or t 1/2 method) approach with analyte detection via liquid chromatography-tandem mass spectrometry (LC-MS/MS). For each species, mean %parent remaining values at each time point were calculated from replicates raw data (analyte:IS peak area ratios) and used to determine in vitro t 1/2 and CLint.
(§5) Experiments were carried out using a robot-assisted (TECAN model Evo 200). Compound was incubated (1 µM final concentration) in buffer (100 mM potassium phosphate pH 7.4 with 3 mM MgCl2) containing hepatic microsomes (0.5 mg/mL final concentration) from multiple species, discretely, at 37 °C under constant orbital shaking. After 5 minutes (pre-incubation), reactions were initiated by addition of nicotinamide adenine dinucleotide phosphate (NADPH, 1 mM final concentration). At selected time intervals (0, 3, 7, 15, 25, and 45 minutes) post-addition of NADPH, aliquots (50 µL) were taken and placed into a 96-shallow-well plate containing ice cold acetonitrile (150 µL) with carbamazepine (IS, 50 nM). The plates were then centrifuged (3000 rcf at 4 °C) for 10 minutes. The supernatants were transferred to a new 96-shallow-well daughter plate and diluted (1:1 v/v) with water (Milli-Q filtered). The plates were then sealed in preparation for LC-MS/MS analysis (see below).
(§6) Raw LC-MS/MS peak area data generated from the assay samples were used to construct natural log-transformed %parent remaining vs. time plots (using t = 0 minute post-NADPH addition sample data as starting point set to 100%). In vitro compound half-life (t 1/2) values were obtained using the following […]
(§7) k is the slope from linear regression analysis of the natural log-transformed data (using means from Where all replicates at each time point). Resulting t 1/2 values were then used to calculate hepatic CLint values according to the following equation and with the use of species-specific scale-up factors for liver weight (grams) per total body weight (kg): […]
(§8) CLint = in vitro t1/2 x 0.5 mg microsomes x 1 gram liver x kg body wt aScale-up factors used are 45 (rat) and 20 (human).2
(§9) Predicted hepatic clearance (CLhep) was calculated using the following equation: […]
(§10) Qh represents hepatic blood flow (mL/min/kg): 21 for human, 70 for rat, and 90 for mouse.
(§11) Prepared samples were injected (10 µL each) onto an AB Sciex Triple Quad 4500 mass spectrometer system with an Agilent 1260 Infinity II pump and autosampler. Mass spectrometer conditions are described in Table S1. Quantitation of compounds was performed via AB Sciex Multiquant software using the raw analyte:IS peak area ratios. The typical detection range was 0.5 ng/mL to ≥ 5,000 ng/mL utilizing a quadratic equation regression with 1/x2 weighting. […]
(§12) Table S1. LC-MS/MS Conditions*
(§13) Mobile phase A 0.5% Formic Acid in Water
(§14) Mobile phase B 0.5% Formic Acid in Acetonitrile
(§15) Gradient Time % Mobile Phase B

Structure (SMILES)	CLint scaled at 1 µM
COc1ccc(CNc2nccc3c2sc2nc(C)nc(C)c23)cc1F [22j]	386 mL/min/kg
Cc1nc(C)c2c(n1)sc1c(N3CC4CC4C3)ncnc12 (stereo not drawn) [14i]	1050 mL/min/kg
Cc1nc(C)c2c(n1)sc1c(N3CCCC3)nccc12 [22k]	3060 mL/min/kg

target: T1, human M4 (hM4) (Homo sapiens, UniProt P08173); assay: Calcium mobilization assay, hM4/Gqi5-CHO cells, EC20 acetylcholine (PAM); type: cell-based; settings: 14h vs 14c; 22g vs 14j; 22j vs 14k; 22k vs 14g; 22f vs 14e
T1 construct: expressed in transfected cells
T1 sequence (P08173 1-479): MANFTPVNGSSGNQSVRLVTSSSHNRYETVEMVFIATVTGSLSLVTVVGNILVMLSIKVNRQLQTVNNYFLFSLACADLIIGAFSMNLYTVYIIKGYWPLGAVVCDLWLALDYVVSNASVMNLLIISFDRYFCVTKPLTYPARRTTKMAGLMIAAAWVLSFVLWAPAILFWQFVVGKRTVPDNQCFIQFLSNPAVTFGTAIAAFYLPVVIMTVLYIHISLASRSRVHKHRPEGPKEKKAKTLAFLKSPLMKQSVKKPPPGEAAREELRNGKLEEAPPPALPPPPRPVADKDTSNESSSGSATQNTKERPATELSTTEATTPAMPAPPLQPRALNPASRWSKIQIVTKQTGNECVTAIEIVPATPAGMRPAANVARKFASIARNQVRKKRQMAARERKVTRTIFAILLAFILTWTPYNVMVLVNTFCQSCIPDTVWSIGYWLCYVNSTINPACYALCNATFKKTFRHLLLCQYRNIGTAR

Structure (SMILES)	fold increase in hM4 potency (EC50) vs comparator analogue
COc1ccc(CNc2nccc3c2sc2nc(C)nc(C)c23)cc1F [22j]	7 fold
Cc1nc(C)c2c(n1)sc1c(N3CCCC3)nccc12 [22k]	4 fold

same assay, conditions: calcium mobilization, hM4/Gqi5-CHO cells, EC20 acetylcholine

Structure (SMILES)	hM4 pEC50
Cc1nc(C)c2c(n1)sc1c(N3CC4CC4C3)ncnc12 (stereo not drawn) [14i]	6.81
Cc1nc(C)c2c(n1)sc1c(N3CCCC3)nccc12 [22k]	7.14

same assay, conditions: calcium mobilization, hM4/Gqi5-CHO cells, EC20 acetylcholine; read-out: hM4 %ACh Max

Structure (SMILES)	Emax
COc1ccc(CNc2nccc3c2sc2nc(C)nc(C)c23)cc1F [22j]	94%
Cc1nc(C)c2c(n1)sc1c(N3CC4CC4C3)ncnc12 (stereo not drawn) [14i]	76%
Cc1nc(C)c2c(n1)sc1c(N3CCCC3)nccc12 [22k]	77%

same assay, conditions: calcium mobilization, hM4/Gqi5-CHO cells, EC20 acetylcholine; read-out: hM4 EC50

Structure (SMILES)	pEC50
COc1ccc(CNc2nccc3c2sc2nc(C)nc(C)c23)cc1F [22j]	6.77
Cc1nc(C)c2c(n1)sc1c(N3CC4CC4C3)ncnc12 (stereo not drawn) [14i]	6.80
Cc1nc(C)c2c(n1)sc1c(N3CCCC3)nccc12 [22k]	> 6.72

same assay, conditions: calcium mobilization, hM4/Gqi5-CHO cells, EC20 acetylcholine; read-out: hM4 pEC50 (converted)

Structure (SMILES)	EC50
COc1ccc(CNc2nccc3c2sc2nc(C)nc(C)c23)cc1F [22j]	166 nM

test system: not listed separately; assay: Binding in brain homogenate from rat (equilibrium dialysis); type: in vitro ADME; settings: fraction unbound; equilibrium dialysis; rat brain homogenates
Procedure: Binding in brain homogenate from rat.
Determination of fraction unbound (f u) in brain homogenate from rat was conducted using the same methodology and procedure than described for plasma protein binding assay with the following modifications: 1) a final compound concentration of 1 μM was used, 2) naïve rat brains were homogenized in DPBS (1:3 composition of brain: DPBS, w/w) using a Mini-Bead Beater™ machine in order to obtain […]
The diluted fraction unbound (f u2) in brain was calculated as (analyte to IS MS peak area ratio from Trans-buffer side) / (analyte to IS MS peak area ratio from Cis-brain homogenate side). Undiluted fraction unbound for the brain was calculated using the following equation: […]
Mean values for each species were calculated from 3 replicates. […]

Structure (SMILES)	rat fbrain
COc1ccc(CNc2nccc3c2sc2nc(C)nc(C)c23)cc1F [22j]	0.009
Cc1nc(C)c2c(n1)sc1c(N3CC4CC4C3)ncnc12 (stereo not drawn) [14i]	0.012
Cc1nc(C)c2c(n1)sc1c(N3CCCC3)nccc12 [22k]	0.007

same assay, conditions: rat, brain homogenate, in %; read-out: fu,brain (rat brain homogenate)

Structure (SMILES)	fraction unbound at 6 h, 1 µM
COc1ccc(CNc2nccc3c2sc2nc(C)nc(C)c23)cc1F [22j]	< 0.01
Cc1nc(C)c2c(n1)sc1c(N3CC4CC4C3)ncnc12 (stereo not drawn) [14i]	0.01 to 0.05
Cc1nc(C)c2c(n1)sc1c(N3CCCC3)nccc12 [22k]	< 0.01

test system: not listed separately; assay: Intrinsic clearance in human liver microsomes; type: in vitro ADME; settings: pH 7.4; human liver microsomes
Procedure: as §3, §4, §5, §6, §7, §8, §9, §10, §11, §12, §13, §14, §15

Structure (SMILES)	CLint scaled at 1 µM
COc1ccc(CNc2nccc3c2sc2nc(C)nc(C)c23)cc1F [22j]	50 mL/min/kg
Cc1nc(C)c2c(n1)sc1c(N3CC4CC4C3)ncnc12 (stereo not drawn) [14i]	177 mL/min/kg
Cc1nc(C)c2c(n1)sc1c(N3CCCC3)nccc12 [22k]	124 mL/min/kg

test system: not listed separately; assay: Rat plasma-to-brain level (PBL) cassette, brain distribution; type: in vivo; settings: SD rat; 0.2 mg/kg IV; 0.25 h; total brain to total plasma ratio; 0.2 mg/kg
Procedure: Blood samples were collected serially from a surgically implanted carotid artery catheter in each animal over multiple post-administration time points (0.033, 0.117, 0.25, 0.5, 1, 2, 4, 7, and 24 hours) into chilled, K2EDTA anticoagulant-fortified tubes and immediately placed on wet ice. The blood samples were then centrifuged (1700 rcf, 5 minutes, 4 °C) in order to obtain plasma samples, which were stored at -80 °C until
For determination of the brain over plasma ratio (Kp), compounds were formulated in 8% ethanol, 32% PEG400 and 60% DMSO (v/v/v) and administered as a single 0.2 mg/kg IV dose (1 mL/kg) to male, Sprague Dawley rats (n = 1; 316 gram body weights) via injection into a surgically-implanted jugular vein catheter. At 15 min post dosing, blood sample was collected serially (i.e., terminally) into chilled, K2EDTA anticoagulant-fortified tube and immediately placed on wet ice. The blood sample was then centrifuged (1700 rcf, 5 minutes, 4 °C) to obtain plasma sample. At the same post-administration time point, whole brain sample was obtained by rapid dissection, rinsed with PBS, and immediately frozen in individual tissue collection box (dry ice). All brain and plasma samples were stored at -80 °C until analysis by LC-MS/MS.
Samples preparation for bioanalysis
Plasma samples from the in-life phase of the study were thawed at ambient temperature (benchtop), and then aliquots (20 µL per sample) were transferred to a 96-shallow-well (V-bottom) plate. […] Acetonitrile (120 µL) containing IS (10 nM carbamazepine) was added to each well of the plate to precipitate protein. The plate was then centrifuged (4000 rcf, 5 minutes, ambient temperature), and resulting supernatants (60 µL each) were transferred to a new 96-shallow-well (V-bottom) plate containing an equal volume (60 µL per well) of water (Milli-Q purified).
Preparation of brain samples was identical to that of plasma samples except for the following modifications. While thawing, brains were weighed (inside their collection boxes using a universal empty collection box tare weight) and then subjected to mechanical homogenization (Mini-BeadBeater™, BioSpec Products, Inc., Bartlesville, OK) in the presence of zirconia/silica beads (1.0 mm) and extraction buffer (isopropanol:water, 7:3, v/v; 3 mL per sample, corrected for post-quantitation).

Structure (SMILES)	Kp, brain:plasma
Cc1nc(C)c2c(n1)sc1c(N3CC4CC4C3)ncnc12 (stereo not drawn) [14i]	7.27

same assay, conditions: SD rat; 0.2 mg/kg IV; 0.25 h; unbound brain to unbound plasma ratio; 0.2 mg/kg

Structure (SMILES)	Kp,uu, brain:plasma
Cc1nc(C)c2c(n1)sc1c(N3CC4CC4C3)ncnc12 (stereo not drawn) [14i]	1.82

same assay, conditions: male, Sprague-Dawley, rat, brain / plasma, iv, 0.2 mg/kg, SD rat, 0.2 mg/kg IV, total brain to total plasma ratio

Structure (SMILES)	Kp at 0.25 h
COc1ccc(CNc2nccc3c2sc2nc(C)nc(C)c23)cc1F [22j]	1.69
Cc1nc(C)c2c(n1)sc1c(N3CC4CC4C3)ncnc12 (stereo not drawn) [14i]	> 5
Cc1nc(C)c2c(n1)sc1c(N3CCCC3)nccc12 [22k]	18.6

same assay, conditions: male, Sprague-Dawley, rat, brain / plasma, iv, 0.2 mg/kg, SD rat, 0.2 mg/kg IV, unbound brain to unbound plasma ratio

Structure (SMILES)	Kp uu at 0.25 h
COc1ccc(CNc2nccc3c2sc2nc(C)nc(C)c23)cc1F [22j]	1.01
Cc1nc(C)c2c(n1)sc1c(N3CC4CC4C3)ncnc12 (stereo not drawn) [14i]	> 1
Cc1nc(C)c2c(n1)sc1c(N3CCCC3)nccc12 [22k]	3.43

test system: not listed separately; assay: Binding in plasma from human (equilibrium dialysis); type: in vitro ADME; settings: human, plasma, fraction unbound; equilibrium dialysis; read-out: human fu,plasma
Procedure: as §1, §2

Structure (SMILES)	fraction unbound at 6 h, 5 µM
COc1ccc(CNc2nccc3c2sc2nc(C)nc(C)c23)cc1F [22j]	0.009
Cc1nc(C)c2c(n1)sc1c(N3CC4CC4C3)ncnc12 (stereo not drawn) [14i]	0.013
Cc1nc(C)c2c(n1)sc1c(N3CCCC3)nccc12 [22k]	0.023

same assay, conditions: human, plasma, in %; read-out: human fu,plasma

Structure (SMILES)	fraction unbound at 6 h, 5 µM
Cc1nc(C)c2c(n1)sc1c(N3CC4CC4C3)ncnc12 (stereo not drawn) [14i]	0.01 to 0.05
